Data as given in US20050234065A1, “Dipeptidyl peptidase-IV inhibitors” (Pfizer Inc, priority 2004, published 2005).

biological target: T1, DPP-IV (Homo sapiens, UniProt P27487); experiment: In vitro assay for dipeptidyl peptidase inhibition; assay type: biochemical; conditions: hydrochloride salts; Gly-Pro-4-methoxy B naphthylamide substrate; overnight at 37° C.; read-out: IC50 (concentration of test compound required for 50% inhibition)
T1 construct: purchased Enzyme Systems Products SPE-01
Description: 150 μL of an enzyme-substrate solution was pipetted into microtiter wells of a polystyrene 96-well plate, and maintained at 4° C. The enzyme-substrate solution comprised 50 μM Gly-Pro-4-methoxy B naphthylamide HCl in 50 mM Tris assay buffer pH 7.3 containing 0.1M sodium chloride, 0.1% (v/v) Triton and 50 μU/mL DPP-IV (Enzyme Systems Products Cat#SPE-01, DPP-IV 5 mU/mL stock). 5 μL/well of compounds of Formula (I) were added, bringing the final compound of Formula (I) concentrations to 3 μM-10 nM per well.
Controls. Enzyme was omitted from four (4) wells, as a reagent blank. 5 μL of 3 mM Diprotin A was added to four wells as a positive quality control, providing a final Diprotin A concentration of 100 μM. To measure total enzyme activity (i.e. a negative control), without the influence of any compounds of Formula (I), 5 μL of distilled water was added to four wells.
The entire assay was incubated overnight (about 14-18 hours) at 37° C.

T1 sequence (P27487 whole entry, species assumed): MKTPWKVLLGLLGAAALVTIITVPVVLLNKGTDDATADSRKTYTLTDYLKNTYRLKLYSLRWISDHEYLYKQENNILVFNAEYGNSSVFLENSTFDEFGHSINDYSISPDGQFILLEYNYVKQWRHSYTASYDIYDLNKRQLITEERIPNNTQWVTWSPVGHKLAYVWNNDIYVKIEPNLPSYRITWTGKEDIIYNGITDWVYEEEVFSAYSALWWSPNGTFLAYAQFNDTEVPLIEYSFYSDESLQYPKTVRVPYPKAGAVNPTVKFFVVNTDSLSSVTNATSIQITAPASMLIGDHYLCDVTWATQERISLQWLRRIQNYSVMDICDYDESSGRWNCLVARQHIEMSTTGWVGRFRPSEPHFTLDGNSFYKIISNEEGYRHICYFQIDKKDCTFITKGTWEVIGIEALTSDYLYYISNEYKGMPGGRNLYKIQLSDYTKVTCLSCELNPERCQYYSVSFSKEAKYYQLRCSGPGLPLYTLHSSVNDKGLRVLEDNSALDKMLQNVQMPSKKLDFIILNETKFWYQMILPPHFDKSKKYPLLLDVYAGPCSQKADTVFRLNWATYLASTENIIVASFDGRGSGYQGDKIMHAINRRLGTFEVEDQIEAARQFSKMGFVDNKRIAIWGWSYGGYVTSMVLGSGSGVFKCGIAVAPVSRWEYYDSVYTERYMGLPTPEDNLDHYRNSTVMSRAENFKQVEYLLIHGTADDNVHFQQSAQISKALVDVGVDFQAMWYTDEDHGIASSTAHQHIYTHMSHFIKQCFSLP

SMILES	IC50 [nM]
Cn1ccc2cc(C(=O)N[C@H]3CC[C@H]([C@H](N)C(=O)N4CCC[C@H]4C#N)CC3)ncc21 [Example 54, N-(trans-4-{(1S)-1-Amino-2-[(2S)-2-cyanopyrrolidin-1-yl]-2-oxoethyl}cyclohexyl)-1-methyl-1H-pyrrolo[2,3-c]pyridine-5-carboxamide]	≤ 100
N#C[C@@H]1CCCN1C(=O)[C@@H](N)[C@H]1CC[C@H](NC(=O)c2cc3sccc3cn2)CC1 [Example 57, N-(trans-4-{(1S)-1-amino-2-[(2S)-2-cyanopyrrolidin-1-yl]-2-oxoethyl}cyclohexyl)thieno[3,2-c]pyridine-6-carboxamide]	≤ 100
N#C[C@@H]1CCCN1C(=O)[C@@H](N)[C@H]1CC[C@H](NC(=O)c2cc3ccsc3cn2)CC1 [Example 60, N-(trans-4-{(1S)-1-amino-2-[(2S)-2-cyanopyrrolidin-1-yl]-2-oxoethyl}cyclohexyl)thieno[2,3-c]pyridine-5-carboxamide]	≤ 100
Nc1ncccc1C(=O)N[C@H]1CC[C@H]([C@H](N)C(=O)N2CCSC2)CC1 [Example 39, (S)-2-amino-N-[trans-4-(1-amino-2-oxo-2-thiazolidin-3-yl-ethyl)-cyclohexyl]-nicotinamide]	≤ 100
N[C@H](C(=O)N1CCC(F)(F)C1)[C@H]1CC[C@H](N2Cc3ncccc3C2=O)CC1 [Example 45, 6-{trans-4-[(1S)-1-amino-2-(3,3-difluoro-pyrrolidin-1-yl)-2-oxo-ethyl]-cyclohexyl}-6,7-dihydro-pyrrolo[3,4-b]pyridin-5-one]	≤ 100
N[C@H](C(=O)N1CCCC1)[C@H]1CC[C@@H](NC(=O)CNC(=O)OCc2ccccc2)CC1 [Example 2, {[cis-4-((1S)-1-amino-2-oxo-2-pyrrolidin-1-yl-ethyl)-cyclohexylcarbamoyl]-methyl}-carbamic acid benzyl ester]	> 500
N[C@H](C(=O)N1CCCC1)[C@H]1CC[C@H](N2C(=O)O[C@@H](c3ccccc3)C2=O)CC1 [Example 28, 3-[trans-4-((1S)-1-amino-2-oxo-2-pyrrolidin-1-yl-ethyl)-cyclohexyl]-(5S)-5-phenyl-oxazolidine-2,4-dione]	100 to 500
N[C@H](C(=O)N1CCCC1)[C@H]1CC[C@@H](NC(=O)CCC2C(=O)OCN2C(=O)OCc2ccccc2)CC1 (stereo in doubt) [Example 4, (4S)-4-{2-[cis-4-((1S)-1-amino-2-oxo-2-pyrrolidin-1-yl-ethyl)-cyclohexylcarbamoyl]-ethyl}-5-oxo-oxazolidine-3-carboxylic acid benzyl ester]	100 to 500
N[C@H](C(=O)N1CC[C@@H](F)C1)[C@H]1CC[C@H](NC(=O)c2cccc(O)n2)CC1 [Example 52, 6-hydroxy-pyridine-2-carboxylic acid {trans-4-[(1S)-1-amino-2-((3R)-3-fluoro-pyrrolidin-1-yl)-2-oxo-ethyl]-cyclohexyl}-amide]	≤ 100
N[C@H](C(=O)N1CCCC1)[C@H]1CC[C@H](NC(=O)[C@H]2COCN2C(=O)OCc2ccccc2)CC1 [Example 8, (4R)-4-[trans-4-((1S)-1-amino-2-oxo-2-pyrrolidin-1-yl-ethyl)-cyclohexylcarbamoyl]-oxazolidine-3-carboxylic acid benzyl ester]	100 to 500
N[C@H](C(=O)N1CCCC1)[C@H]1CC[C@H](NC(=O)[C@@H]2CCC(=O)N2C(=O)OCc2ccccc2)CC1 [Example 14, (2S)-2-[trans-4-(1-(1S)-amino-2-oxo-2-pyrrolidin-1-yl-ethyl)-cyclohexylcarbamoyl]-5-oxo-pyrrolidine-1-carboxylic acid benzyl ester]	100 to 500
CN(CC(=O)N[C@H]1CC[C@H]([C@H](N)C(=O)N2CCC(F)(F)C2)CC1)C(=O)OCc1ccccc1 [Example 30, (S)-({trans-4-[1-amino-2-(3,3-difluoro-pyrrolidin-1-yl)-2-oxo-ethyl]-cyclohexylcarbamoyl}-methyl)-methyl-carbamic acid benzyl ester]	≤ 100
N[C@H](C(=O)N1CCCC1)[C@H]1CC[C@H](NC(=O)C[C@H]2C(=O)OCN2C(=O)OCc2ccccc2)CC1 [Example 13, (4S)-4-{[trans-4-((1S)-1-amino-2-oxo-2-pyrrolidin-1-yl-ethyl)-cyclohexylcarbamoyl]-methyl}-5-oxo-oxazolidine-3-carboxylic acid benzyl ester]	≤ 100
N#C[C@@H]1CCCN1C(=O)[C@@H](N)[C@H]1CC[C@H](NC(=O)c2cc3occc3cn2)CC1 [Example 61, N-(trans-4-{(1S)-1-amino-2-[(2S)-2-cyanopyrrolidin-1-yl]-2-oxoethyl}cyclohexyl)furo[3,2-c]pyridine-6-carboxamide]	≤ 100
N#C[C@@H]1CCCN1C(=O)[C@@H](N)[C@H]1CC[C@H](NC(=O)c2cc3ccoc3cn2)CC1 [Example 58, N-(trans-4-{(1S)-1-amino-2-[(2S)-2-cyanopyrrolidin-1-yl]-2-oxoethyl}cyclohexyl) furo[2,3-c]pyridine-5-carboxamide]	≤ 100
N[C@H](C(=O)N1CCSC1)[C@H]1CC[C@H](N2Cc3ncccc3C2=O)CC1 [Example 43, 6-[trans-4-((1S)-1-amino-2-oxo-2-thiazolidin-3-yl-ethyl)-cyclohexyl]-6,7-dihydro-pyrrolo[3,4-b]pyridin-5-one]	≤ 100
N[C@H](C(=O)N1CCCC1)[C@H]1CC[C@H](N2Cc3nccnc3C2=O)CC1 [Example 46, 6-[trans-4-((1S)-1-amino-2-oxo-2-pyrrolidin-1-yl-ethyl)-cyclohexyl]-6,7-dihydro-pyrrolo[3,4-b]pyrazin-5-one]	≤ 100
CN(CC(=O)N[C@H]1CC[C@H]([C@H](N)C(=O)N2CCCC2)CC1)C(=O)OCc1ccccc1 [Example 34, (S)-{[trans-4-(1-amino-2-oxo-2-pyrrolidin-1-yl-ethyl)-cyclohexylcarbamoyl]-methyl}-methyl-carbamic acid benzyl ester]	100 to 500
N[C@H](C(=O)N1CCCC1)[C@H]1CC[C@H](N2C(=O)c3nccnc3C2=O)CC1 [Example 22, 6-[trans-4-((1S)-1-amino-2-oxo-2-pyrrolidin-1-yl-ethyl)-cyclohexyl]-pyrrolo[3,4-b]pyrazine-5,7-dione]	≤ 100
N[C@H](C(=O)N1CCSC1)[C@H]1CC[C@H](N2Cc3ccccc3S2(=O)=O)CC1 [Example 51, (2S)-2-amino-2-[trans-4-(1,1-dioxo-1,3-dihydro-1λ^6-benzo[d]isothiazol-2-yl)-cyclohexyl]-1-thiazolidin-3-yl-ethanone]	≤ 100
Nc1ncccc1C(=O)N[C@H]1CC[C@H]([C@H](N)C(=O)N2CCCC2)CC1 [Example 38, (S)-2-amino-N-[trans-4-(1-amino-2-oxo-2-pyrrolidin-1-yl-ethyl)-cyclohexyl]-nicotinamide]	≤ 100
N#C[C@@H]1CCCN1C(=O)[C@@H](N)[C@H]1CC[C@H](NC(=O)c2cc3cccn3cn2)CC1 [Example 47, pyrrolo[1,2-c]pyrimidine-3-carboxylic acid {trans-4-[(1S)-1-Amino-2-((2S)-2-cyano-pyrrolidin-1-yl)-2-oxo-ethyl]-cyclohexyl}-amide]	≤ 100
N[C@H](C(=O)N1CCCC1)[C@H]1CC[C@@H](NC(=O)[C@@H]2CCCN2C(=O)OCc2ccccc2)CC1 [Example 3, (2S)-2-[cis-4-(1-(1S)-amino-2-oxo-2-pyrrolidin-1-yl-ethyl)-cyclohexylcarbamoyl]-pyrrolidine-1-carboxylic acid benzyl ester]	> 500
N#C[C@@H]1CCCN1C(=O)[C@@H](N)[C@H]1CC[C@H](N2Cc3ncccc3C2=O)CC1 [Example 44, 1-{(1S)-amino-[trans-4-(5-oxo-5,7-dihydro-pyrrolo[3,4-b]pyridin-6-yl)-cyclohexyl]-acetyl)-(2S)-pyrrolidine-2-carbonitrile]	≤ 100
N[C@H](C(=O)N1CCCC1)[C@H]1CC[C@H](N2C(=O)c3cccnc3C2=O)CC1 [Example 24, 6-[trans-4-((1S)-1-amino-2-oxo-2-pyrrolidin-1-yl-ethyl)-cyclohexyl]-pyrrolo[3,4-b]pyridine-5,7-dione]	≤ 100
N[C@H](C(=O)N1CCCC1)[C@H]1CC[C@H](NC(=O)[C@@H]2C[C@@H](O)CN2C(=O)OCc2ccccc2)CC1 [Example 12, (2S,4R)-2-[trans-4-((1S)-1-amino-2-oxo-2-pyrrolidin-1-yl-ethyl)-cyclohexylcarbamoyl]-4-hydroxy-pyrrolidine-1-carboxylic acid benzyl ester]	≤ 100
CC1(C)COc2cnc(C(=O)N[C@H]3CC[C@H]([C@H](N)C(=O)N4CCC[C@H]4C#N)CC3)cc21 [Example 55, N-(trans-4-{(1S)-1-amino-2-[(2S)-2-cyanopyrrolidin-1-yl]-2-oxoethyl}cyclohexyl)-3,3-dimethyl-2,3-dihydrofuro[2,3-c]pyridine-5-carboxamide]	≤ 100
N[C@H](C(=O)N1CC[C@@H](F)C1)[C@H]1CC[C@H](NC(=O)c2cncc(O)n2)CC1 [Example 53, 6-Hydroxy-pyrazine-2-carboxylic acid {trans-4-[(1S)-1-Amino-2-((3R)-3-fluoro-pyrrolidin-1-yl)-2-oxo-ethyl]-cyclohexyl}-amide]	≤ 100
N[C@H](C(=O)N1CCCC1)[C@H]1CC[C@H](N2Cc3sccc3C2=O)CC1 [Example 41, 5-[trans-4-((1S)-1-amino-2-oxo-2-pyrrolidin-1-yl-ethyl)-cyclohexyl]-5,6-dihydro-thieno[2,3-c]pyrrol-4-one]	≤ 100
